Assay results taken from publication PMC5118987 (Antimicrobial Agents and Chemotherapy, 2016).
Where two headings read alike, the source gives them in different places.

How the values were obtained:
[1] = system: INSTI-resistant HIV-1 mutants (HXB2); assay: microbe, parasite or virus in culture; assay type: cell-based
[2] = system: inhibitor-selected HIV-1 IIIb passages; assay: Phenotypic profile of selected HIV-1 passages; assay type: cell-based; settings: for EC50: Human immunodeficiency virus 1, IIIB
HIV-1 BaL = settings: primary CD4+ T-cells, 35 days, drug at tissue culture equivalent clinical Cmin (FTC 160 × EC50)

Structure (SMILES): Cc1nnc(C(=O)NC(C)(C)c2nc(C(=O)NCc3ccc(F)cc3)c(O)c(=O)n2C)o1 [RAL, raltegravir]
- EC50 ([1]; Human immunodeficiency virus 1, HXB2, IN mutant E92Q): 38 ± 9 nM
- EC50 ([1]; Human immunodeficiency virus 1, HXB2, IN mutant E92Q/N155H): 624 ± 213 nM
- EC50 ([1]; Human immunodeficiency virus 1, HXB2, IN mutant E138K/Q148K): 1530 nM
- EC50 ([1]; Human immunodeficiency virus 1, HXB2, IN mutant G140S/Q148R): 2460 nM
- EC50 ([1]; Human immunodeficiency virus 1, HXB2, IN mutant M50I (BIC/DTG selection)): 7.4 ± 1.7 nM
- EC50 ([1]; Human immunodeficiency virus 1, HXB2, IN mutant M50I/R263K (BIC selection)): 7.7 ± 2.1 nM
- EC50 ([1]; Human immunodeficiency virus 1, HXB2, IN mutant M50I/S119R/R263K (DTG selection)): 19 ± 7 nM
- EC50 ([1]; Human immunodeficiency virus 1, HXB2, IN mutant N155H): 188 ± 37 nM
- EC50 ([1]; Human immunodeficiency virus 1, HXB2, IN mutant N155H/Q148R): 2180 nM
- EC50 ([1]; Human immunodeficiency virus 1, HXB2, IN mutant Q148R): 427 ± 52 nM
- EC50 ([1]; Human immunodeficiency virus 1, HXB2, IN mutant R263K (BIC/DTG selection), Table 7): 7.7 ± 1.2 nM
- EC50 ([1]; Human immunodeficiency virus 1, HXB2, IN mutant R263K, Table 6): 10.4 ± 1.4 nM
- EC50 ([1]; Human immunodeficiency virus 1, HXB2, IN mutant S119R (DTG selection)): 15 ± 5 nM
- EC50 ([1]; Human immunodeficiency virus 1, HXB2, IN mutant S119R/R263K (DTG selection)): 12 ± 2 nM
- EC50 ([1]; Human immunodeficiency virus 1, HXB2, IN mutant S153Y (DTG selection)): 15 ± 4 nM
- EC50 ([1]; Human immunodeficiency virus 1, HXB2, IN mutant S153Y/R263K (DTG selection)): 22 ± 2 nM
- EC50 ([1]; Human immunodeficiency virus 1, HXB2, IN mutant Y143R): 418 ± 151 nM
- EC50 ([1]; Human immunodeficiency virus 1, HXB2, WT (HXB2), Table 6, read-out: EC50): 9.4 ± 1.4 nM
- EC50 ([1]; Human immunodeficiency virus 1, HXB2, WT (HXB2), Table 7, read-out: EC50): 7.1 ± 1.1 nM
- cross-resistance of BIC-selected variants ([1]; all BIC-selected variants): < 8 fold
- Fold-Resistance Relative to HIV-1 IIIb ([2]; HIV-1-IIIb (reference)): 1 fold
- EC50 ([2]; 480 h, selected virus EVG P2 (day 20, 7.2 nM)): 25.9 nM
- EC50 ([2]; HIV-1-IIIb (unselected)): 8.8 nM
- EC50 ([2]; selected virus BIC P3 (day 47, 6 nM)): 18.1 nM
- EC50 ([2]; selected virus BIC P5 (day 71, 12 nM)): 18.3 nM
- EC50 ([2]; selected virus BIC P6 (day 86, 24 nM)): 24.4 nM
- EC50 ([2]; selected virus BIC P8 (day 156, 96 nM)): 28.8 nM
- EC50 ([2]; selected virus BIC P9 (day 181, 192 nM)): 41.7 nM
- EC50 ([2]; selected virus BIC P10 (day 234, 384 nM)): 29.3 nM
- EC50 ([2]; selected virus DTG P3Lo (day 59, 6.4 nM)): 11.8 nM
- EC50 ([2]; selected virus DTG P4 (day 87, 9.6 nM)): 23.2 nM
- EC50 ([2]; selected virus DTG P5 (day 97, 14.4 nM)): 28 nM
- EC50 ([2]; selected virus DTG P7 (day 139, 32.4 nM)): 39.7 nM
- EC50 ([2]; selected virus DTG P9 (day 174, 72.9 nM)): 43 nM
- EC50 ([2]; selected virus DTG P10 (day 202, 109.4 nM)): 56.9 nM
- EC50 ([2]; selected virus EVG P4 (day 41, 28.8 nM)): 26.9 nM
- EC50 ([2]; selected virus EVG P6 (day 56, 115 nM)): 19.9 nM
- EC50 ([2]; selected virus EVG P7 (day 67, 230 nM)): 28.7 nM
- EC50 ([2]; selected virus EVG P9 (day 94, 922 nM)): 44.9 nM
- EC50 ([2]; selected virus EVG P10 (day 119, 1843 nM)): 17 nM
- Fold-Resistance Relative to HIV-1 IIIb ([2]; selected virus BIC P3): 2 fold
- Fold-Resistance Relative to HIV-1 IIIb ([2]; selected virus BIC P5): 2.1 fold
- Fold-Resistance Relative to HIV-1 IIIb ([2]; selected virus BIC P6): 2.8 fold
- Fold-Resistance Relative to HIV-1 IIIb ([2]; selected virus BIC P8): 3.3 fold
- Fold-Resistance Relative to HIV-1 IIIb ([2]; selected virus BIC P9): 4.7 fold
- Fold-Resistance Relative to HIV-1 IIIb ([2]; selected virus BIC P10): 3.3 fold
- Fold-Resistance Relative to HIV-1 IIIb ([2]; selected virus DTG P3Lo): 1.3 fold
- Fold-Resistance Relative to HIV-1 IIIb ([2]; selected virus DTG P4): 2.6 fold
- Fold-Resistance Relative to HIV-1 IIIb ([2]; selected virus DTG P5): 3.2 fold
- Fold-Resistance Relative to HIV-1 IIIb ([2]; selected virus DTG P7): 4.5 fold
- Fold-Resistance Relative to HIV-1 IIIb ([2]; selected virus DTG P9): 4.9 fold
- Fold-Resistance Relative to HIV-1 IIIb ([2]; selected virus DTG P10): 6.4 fold
- Fold-Resistance Relative to HIV-1 IIIb ([2]; selected virus EVG P2): 2.9 fold
- Fold-Resistance Relative to HIV-1 IIIb ([2]; selected virus EVG P4): 3.0 fold
- Fold-Resistance Relative to HIV-1 IIIb ([2]; selected virus EVG P6): 2.3 fold
- Fold-Resistance Relative to HIV-1 IIIb ([2]; selected virus EVG P7): 3.3 fold
- Fold-Resistance Relative to HIV-1 IIIb ([2]; selected virus EVG P9): 5.1 fold
- Fold-Resistance Relative to HIV-1 IIIb ([2]; selected virus EVG P10): 1.9 fold
- Frequency of Viral Breakthrough with RAMs (HIV-1 BaL): 58%
- p24+ Wells (HIV-1 BaL): 12/12
